Measurements from PMC11404765 (Journal of Clinical Oncology, 2024).
Marks after values point to notes of the source that are not given here.

How the values were obtained:
PK profiles in serum = type: in vivo, human
[1] = system: BTC harboring FGFR2 fusions or rearrangements; settings: phase II trials; cited from earlier work
IDH1-mutant BTC = settings: phase III; cited from earlier work
advanced BTC = settings: phase III, added to chemotherapy, first-line advanced BTC; cited from earlier work

| Compound | ORR [1] | Overall survival (OS) (advanced BTC) | also measured |
| --- | --- | --- | --- |
| CC[C@@]1(O)C(=O)OCc2c1cc1n(c2=O)Cc2c-1nc1cc(F)c(C)c3c1c2[C@@H](NC(=O)CO)CC3 [MAAA-1181a] |  |  | t1/2, mean (SD) (PK profiles in serum; n = 6): 4.76 (1.02) days; Tmax, median (range) (PK profiles in serum; n = 7): 3.88 (1.65-4.07) hours; Cmax, mean (SD) (PK profiles in serum; payload after T-DXd 5.4 mg/kg, n = 7): 11.5 (4.65)^a ng/mL |
| CCN1CCN(c2ccc(Nc3cc(N(C)C(=O)Nc4c(Cl)c(OC)cc(OC)c4Cl)ncn3)cc2)CC1 [infigratinib] | 18.8% |  |  |
| N#Cc1ccnc(N2C(=O)CC[C@H]2C(=O)N(c2cncc(F)c2)[C@H](C(=O)NC2CC(F)(F)C2)c2ccccc2Cl)c1 [ivosidenib] |  |  | PFS compared with placebo (IDH1-mutant BTC): improved |
| CCN1C(=O)N(c2c(F)c(OC)cc(OC)c2F)Cc2cnc3[nH]c(CN4CCOCC4)cc3c21 [pemigatinib] | 35.5% |  |  |
| durvalumab |  | improved overall survival |  |
| pembrolizumab |  | improved overall survival |  |
